Reference: ChEMBL document CHEMBL1144966, “Both 5-arylidene-2-thioxodihydropyrimidine-4,6(1H,5H)-diones and 3-thioxo-2,3-dihydro-1H-imidazo[1,5-a]indol-1-ones are light-dependent tumor necrosis factor-alpha antagonists” (Bioorg Med Chem Lett, 2003)

The compounds below were run against T1, Tumor necrosis factor receptor superfamily member 1A (Homo sapiens, UniProt P19438) (assay: Inhibition of TNF-alpha binding to TNFRc1).
T1 sequence (P19438 whole entry): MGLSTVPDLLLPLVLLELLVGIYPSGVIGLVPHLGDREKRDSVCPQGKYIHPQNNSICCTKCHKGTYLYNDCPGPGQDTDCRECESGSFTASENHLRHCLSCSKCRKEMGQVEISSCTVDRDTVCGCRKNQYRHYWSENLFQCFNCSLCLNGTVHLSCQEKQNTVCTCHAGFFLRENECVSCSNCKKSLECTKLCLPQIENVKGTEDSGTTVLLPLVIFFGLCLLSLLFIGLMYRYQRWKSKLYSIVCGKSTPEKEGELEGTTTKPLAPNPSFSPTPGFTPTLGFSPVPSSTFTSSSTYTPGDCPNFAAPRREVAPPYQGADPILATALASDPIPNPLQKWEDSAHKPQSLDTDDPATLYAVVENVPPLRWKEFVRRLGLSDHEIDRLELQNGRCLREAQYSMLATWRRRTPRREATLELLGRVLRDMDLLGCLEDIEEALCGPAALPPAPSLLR

Compared with `CCN1C(=O)/C(=C/c2ccc(-c3ccsc3C(=O)OC)o2)SC1=S`, `CCN1C(=O)C(=Cc2ccc(-c3ccsc3C(=O)OC)o2)C(=O)N(CC)C1=S` is 9.3-fold higher in IC50: 300 nM for the first, 2800 nM for the second. The first is the more potent here.

Going from `C=CCN1C(=O)c2cc3c(OC)cc(OC)cc3n2C1=S` to `CCN1C(=O)c2cc3c(OC)cc(OC)cc3n2C1=S`, the IC50 rises from 280 nM to 1000 nM (3.6-fold). The first is the more potent here.

Going from `Cc1ccccc1N1C(=O)/C(=C/c2c[nH]c3ccccc23)C(=O)NC1=S` to `Cc1ccccc1N1C(=O)C(=Cc2c[nH]c3ccccc23)C(=O)N(c2ccccc2C)C1=S`, the IC50 falls from 1800 nM to 790 nM (2.3-fold).

`C=CCN1C(=S)c2c(C)c3c(OC)cc(OC)cc3n2C1=S` and `C=CCN1C(=O)n2c(c(C)c3c(OC)cc(OC)cc32)C1=S` are the same in IC50: 210 nM for the first, 210 nM for the second.

Going from `C=CCN1C(=O)n2c(cc3c(OC)cc(OC)cc32)C1=S` to `C=CCN1C(=O)c2c(C)c3c(OC)cc(OC)cc3n2C1=S`, the IC50 rises from 610 nM to 1100 nM (1.8-fold). The first is the more potent here.

Going from `CCN1C(=O)/C(=C/c2ccc(-c3ccccc3C(F)(F)F)o2)SC1=S` to `CCN1C(=O)C(=Cc2ccc(-c3ccccc3C(F)(F)F)o2)C(=O)N(CC)C1=S`, the IC50 rises from 320 nM to 2000 nM (6.2-fold). The first is the more potent here.

`CCN1C(=O)c2cc3c(OC)cc(OCc4ccccn4)cc3n2C1=S` and `CCN1C(=O)c2cc3c(OC)cc(OCOC)cc3n2C1=S` are within 1.5-fold of each other in IC50: 310 nM for the first, 280 nM for the second.

`CCN1C(=O)C(=Cc2ccc(Br)s2)C(=O)N(CC)C1=S` and `CCN1C(=O)C(=Cc2ccc(C)s2)C(=O)N(CC)C1=S` are within 1.5-fold of each other in IC50: 4500 nM for the first, 3400 nM for the second.

Compared with `CCN1C(=O)C(=Cc2c[nH]c3c(C)cccc23)C(=O)N(CC)C1=S`, `CCN1C(=O)C(=Cc2c[nH]c3ccccc23)C(=O)N(CC)C1=S` is 1.7-fold higher in IC50: 600 nM for the first, 1000 nM for the second. The first is the more potent here.

Going from `COc1cc(OC)c2cc3n(c2c1)C(=S)N(CCc1ccccc1)C3=O` to `COc1cc(OC)c2cc3n(c2c1)C(=S)N(CCCN1CCOCC1)C3=O`, the IC50 falls from 1900 nM to 670 nM (2.8-fold).

First: CCN1C(=O)C(=Cc2sccc2C)C(=O)N(CC)C1=S
Second: CCN1C(=O)C(=Cc2cn(C)c3ccccc23)C(=O)N(CC)C1=S
The IC50 of the first is 110-fold higher: 14100 nM for the first, 130 nM for the second.

`C=CCN1C(=O)c2cc3c(OC)cccc3n2C1=S` and `C=CCN1C(=O)c2cc3ccc(OC)cc3n2C1=S` are within 1.5-fold of each other in IC50: 2100 nM for the first, 1700 nM for the second.

Compared with `CCN1C(=O)c2cc3c(OC)cc(OCC(=O)OC(C)(C)C)cc3n2C1=S`, `C=CCN1C(=O)c2cc3c(OC)c(OC)c(OC)cc3n2C1=S` is 2-fold higher in IC50: 390 nM for the first, 780 nM for the second. The first is the more potent here.

Going from `O=C1C(=Cc2ccc(-c3ccccc3C(F)(F)F)o2)C(=O)N(c2ccccc2)C(=S)N1c1ccccc1` to `COC(=O)c1sccc1-c1ccc(C=C2C(=O)N(c3ccccc3)C(=S)N(c3ccccc3)C2=O)o1`, the IC50 rises from 11000 nM to 40000 nM (3.6-fold). The first is the more potent here.

First: CCN1C(=O)C(=Cc2c[nH]c3ccc(OCc4ccccc4)cc23)C(=O)N(CC)C1=S
Second: CCN1C(=O)C(=Cc2c[nH]c3ccc([N+](=O)[O-])cc23)C(=O)N(CC)C1=S
The IC50 of the first is 14-fold lower: 400 nM for the first, 5500 nM for the second.

`CCN1C(=O)C(=Cc2cc3ccccc3[nH]2)C(=O)N(CC)C1=S` and `CN1C(=O)C(=Cc2c[nH]c3ccccc23)C(=O)N(C)C1=S` are within 1.5-fold of each other in IC50: 10200 nM for the first, 13000 nM for the second.

With `CCN1C(=O)/C(=C/c2ccc(-c3cc(C(F)(F)F)nn3C)s2)SC1=S` the IC50 was 140 nM.

The compounds below were run against T2, Tumor necrosis factor receptor superfamily member 1A (Homo sapiens) (UniProt P19438) (assay: Compound was tested for inhibition of TNF-alpha binding to TNFRc1 at a concentration of 10 uM).
T2 sequence (whole entry): T1 sequence (P19438 whole entry)

Compared with `C=CCN1C(=O)c2c(C)c3c(OC)cc(OC)cc3n2/C1=N/C#N`, `C=CCN1C(=O)c2c(C)c3c(OC)cc(OC)cc3n2C1=O` is lower in inhibition: 19% for the first, 0% for the second.

`CCN1C(=O)C(=Cc2ccncc2)C(=O)N(CC)C1=S` and `CCN1C(=O)C(=Cc2cccnc2)C(=O)N(CC)C1=S` are the same in inhibition: 0% for the first, 0% for the second.

Compared with `CCN1C(=O)c2cc3c(OC)cc(OCC(=O)O)cc3n2C1=S`, `C=CCN1C(=O)c2cc3c(OC)cc(OC)cc3n2C1=O` is lower in inhibition: 42% for the first, 0% for the second.

Going from `CCN1C(=O)c2cc3ccccc3n2C1=S` to `C=CCN1C(=O)c2cc3cc(Cl)ccc3n2C1=S`, the inhibition falls from 27% to 17%.

Going from `C=CCN1C(=O)c2cc3cc(OCc4ccccc4)ccc3n2C1=S` to `C=CCN1C(=O)c2cc3cc(OC)c(OC)cc3n2C1=S`, the inhibition rises from 46% to 53%.

First: CCN1C(=O)C(=Cc2cc(Br)cs2)C(=O)N(CC)C1=S
Second: CCN1C(=O)C(=Cc2cc([N+](=O)[O-])cs2)C(=O)N(CC)C1=S
The inhibition of the first is higher: 2% for the first, 0% for the second.

`CCN1C(=O)C(=Cc2ccccn2)C(=O)N(CC)C1=S` and `CCN1C(=O)C(=Cc2ccc3ccccc3n2)C(=O)N(CC)C1=S` are the same in inhibition: 0% for the first, 0% for the second.

`CCN1C(=O)C2Cc3c(OC)cc(OC)cc3N2C1=S` (centres undefined) and `COc1cc(OC)c2c(C)c3n(c2c1)C(=O)CN(Cc1ccccc1)C3=O` are the same in inhibition: 0% for the first, 0% for the second.

First: O=C1C(=Cc2c[nH]c3ccccc23)C(=O)N(c2ccccc2)C(=S)N1c1ccccc1
Second: CCN1C(=O)/C(=C/c2c[nH]c3ccccc23)SC1=S
The inhibition of the first is lower: 9% for the first, 40% for the second.

First: CCN1C(=O)C(=Cc2cn(C(C)=O)c3ccccc23)C(=O)N(CC)C1=S
Second: CCN1C(=O)C(=Cc2cnc3ccccc3c2)C(=O)N(CC)C1=S
The inhibition of the first is higher: 15% for the first, 0% for the second.

In the case of `CCN1C(=O)C(=Cc2ccc(-c3cc(C(F)(F)F)nn3C)s2)C(=O)N(CC)C1=S`, the inhibition is reported as 33%.
